Source: ChEMBL document CHEMBL1201862, “PubChem BioAssay data set” (2004)
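Protocol summary: plate cells (96-well), add compound at 5 concentrations, incubate 48 h, interpolate endpoints linearly. GI50: concentration for 50% inhibition of growth.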 Calls of active or inactive are those of the source. Rule as the data show it: active = GI50 up to about 1.1 µM and inactive = higher.

Legend:
Test in all cases: inhibition of tumour cell growth, NCI panel, 48 h
SF-295 = tested on: SF-295
TK-10 = tested on: TK-10
K562 = tested on: K562
NCI-H460 = tested on: NCI-H460
SF-539 = tested on: SF-539
OVCAR-8 = tested on: OVCAR-8
UACC-62 = tested on: UACC-62
CAKI-1 = tested on: CAKI-1
MOLT-4 = tested on: MOLT-4
M14 = tested on: M14
RXF 393 = tested on: RXF 393
SW-620 = tested on: SW-620
HT-29 = tested on: HT-29
786-0 = tested on: 786-0
HL-60 = tested on: HL-60
HCT-116 = tested on: HCT-116
OVCAR-5 = tested on: OVCAR-5
SNB-19 = tested on: SNB-19
A498 = tested on: A498
CCRF-CEM = tested on: CCRF-CEM
EKVX = tested on: EKVX
OVCAR-4 = tested on: OVCAR-4
HCC 2998 = tested on: HCC 2998
KM12 = tested on: KM12
U-251 = tested on: U-251
NCI-H522 = tested on: NCI-H522
MDA-MB-435 = tested on: MDA-MB-435
Hs-578T = tested on: Hs-578T
MCF7 = tested on: MCF7
MDA-MB-231 = tested on: MDA-MB-231
HOP-92 = tested on: HOP-92
DU-145 = tested on: DU-145
SF-268 = tested on: SF-268
ACHN = tested on: ACHN
SK-OV-3 = tested on: SK-OV-3
SK-MEL-5 = tested on: SK-MEL-5
LOX IMVI = tested on: LOX IMVI
PC-3 = tested on: PC-3
NCI-H226 = tested on: NCI-H226
HCT-15 = tested on: HCT-15
SK-MEL-28 = tested on: SK-MEL-28
BT-549 = tested on: BT-549
RPMI-8226 = tested on: RPMI-8226
NCI/ADR-RES = tested on: NCI/ADR-RES
NCI-H23 = tested on: NCI-H23
SK-MEL-2 = tested on: SK-MEL-2
SR = tested on: SR
SN12C = tested on: SN12C
MDA-N = tested on: MDA-N
IGROV-1 = tested on: IGROV-1
A549 = tested on: A549
UO-31 = tested on: UO-31
COLO 205 = tested on: COLO 205

## COc1ccc(C2c3cc4c(c(OC)c3CC3OCC(=O)C32)OCO4)cc1OC (stereo not drawn)
SF-295
  GI50: 30.7 nM (active)
TK-10
  GI50: 60700 nM (inactive)
K562
  GI50: 50.4 nM (active)
NCI-H460
  GI50: 62.5 nM (active)
SF-539
  GI50: 24.6 nM (active)
OVCAR-8
  GI50: 60.1 nM (active)
UACC-62
  GI50: 53.1 nM (active)
CAKI-1
  GI50: 40.5 nM (active)
MOLT-4
  GI50: 130 nM (active)
M14
  GI50: 48.2 nM (active)
RXF 393
  GI50: 21.2 nM (active)
SW-620
  GI50: 36.6 nM (active)
HT-29
  GI50: < 10 nM (active)
786-0
  GI50: 34.8 nM (active)
HL-60
  GI50: < 10 nM (active)
HCT-116
  GI50: 51.6 nM (active)
OVCAR-5
  GI50: 153 nM (active)
SNB-19
  GI50: 53.8 nM (active)
A498
  GI50: 78.3 nM (active)
CCRF-CEM
  GI50: 37.1 nM (active)
EKVX
  GI50: 60.5 nM (active)
OVCAR-4
  GI50: 36.4 nM (active)
HCC 2998
  GI50: 129 nM (active)
KM12
  GI50: 31.8 nM (active)
U-251
  GI50: 50.4 nM (active)
NCI-H522
  GI50: < 10 nM (active)
MDA-MB-435
  GI50: 14.6 nM (active)
Hs-578T
  GI50: < 10 nM (active)
MCF7
  GI50: 57.5 nM (active)
MDA-MB-231
  GI50: 209 nM (active)
HOP-92
  GI50: 25000 nM (inactive)
DU-145
  GI50: 21.8 nM (active)
SF-268
  GI50: 416 nM (active)
ACHN
  GI50: < 10 nM (active)
SK-OV-3
  GI50: 40.5 nM (active)
SK-MEL-5
  GI50: 37 nM (active)
LOX IMVI
  GI50: 51.8 nM (active)
PC-3
  GI50: 61.9 nM (active)
NCI-H226
  GI50: 38.5 nM (active)
HCT-15
  GI50: 41.7 nM
SK-MEL-28
  GI50: 31900 nM (inactive)
BT-549
  GI50: 91.4 nM (active)
RPMI-8226
  GI50: 50.1 nM (active)
NCI/ADR-RES
  GI50: 37.7 nM (active)
NCI-H23
  GI50: 36.5 nM (active)
SK-MEL-2
  GI50: 780 nM (active)
SR
  GI50: < 10 nM (active)
SN12C
  GI50: < 10 nM (active)
MDA-N
  GI50: < 10 nM (active)
IGROV-1
  GI50: < 10 nM (active)
A549
  GI50: 64.7 nM (active)
UO-31
  GI50: 74 nM (active)
COLO 205
  GI50: 26.7 nM (active)
